Results from patent US9247759B2, “Identification of human T2R receptors that respond to bitter compounds that elicit the bitter taste in compositions, and the use thereof in assays to identify compounds that inhibit (block) bitter taste in compositions and use thereof” (SENOMYX, INC., priority 2007, dated 2016).

What was measured:
hT2R14 [1] = biological target: T1, hT2R14 (Homo sapiens (Human), UniProt Q9NYV8); assay: hT2R14 antagonist high-throughput FLIPR assay, stable cell line with G16g44, agonist aristolochic acid; assay type: cell-based; settings: read-out: IC50 on hT2R14 bitter receptor
Procedure, shortened: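 Compounds were co-applied with 3 μM aristolochic acid, a dose set to reach 70-80% of maximal hT2R14 activation. Read-out was FLIPR fluorescence in a stable HEK293 line co-expressing hT2R14 and G16g44.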

hT2R64 = hT2R64 (Homo sapiens (Human), UniProt P59538); assay: hT2R panel inhibition, transient HEK293 G16g44, agonist Aristolochic Acid 1 μM; assay type: cell-based; settings: receptor activated to EC80 with the corresponding agonist; for inhibition at 25 µM: HEK293, compound at 25 μM, read-out: screening result against bitter receptor 64
Procedure, shortened: (§1)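 Selectivity screen across 22 hT2Rs, each transfected singly into a G16g44-stable HEK293 background. Agonist dosed at EC80. Inhibition = reduced receptor response in presence of test compound.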

hT2R3 = hT2R3 (Homo sapiens (Human), UniProt Q9NYW6); assay: hT2R panel inhibition, transient HEK293 G16g44, agonist Chloroquine pH6.5 50 μM; assay type: cell-based; settings: receptor activated to EC80 with the corresponding agonist; for inhibition at 25 µM: HEK293, compound at 25 μM, read-out: screening result against bitter receptor 3
Procedure, shortened: as §1

hT2R16 = hT2R16 (Homo sapiens (Human), UniProt Q9NYV7); assay: hT2R panel inhibition, transient HEK293 G16g44, agonist Salicin 1 mM; assay type: cell-based; settings: HEK293, compound at 25 μM; receptor activated to EC80 with the corresponding agonist; read-out: screening result against bitter receptor 16
Procedure, shortened: as §1

hT2R71 = hT2R71 (Homo sapiens (Human), UniProt P59536); assay: hT2R panel inhibition, transient HEK293 G16g44, agonist Picric Acid 10 μM; assay type: cell-based; settings: receptor activated to EC80 with the corresponding agonist; for inhibition at 25 µM: HEK293, compound at 25 μM, read-out: screening result against bitter receptor 71
Procedure, shortened: as §1

hT2R55 = assay: hT2R panel inhibition, transient HEK293 G16g44, agonist Cinchonine 150 μM; assay type: cell-based, human; settings: compound at 25 μM; receptor activated to EC80 with the corresponding agonist
Procedure, shortened: as §1

hT2R7 = hT2R7 (Homo sapiens (Human), UniProt Q9NYW3); assay: hT2R panel inhibition, transient HEK293 G16g44, agonist Chloroquine pH6.5 10 mM; assay type: cell-based; settings: HEK293, compound at 25 μM; receptor activated to EC80 with the corresponding agonist; read-out: screening result against bitter receptor 7
Procedure, shortened: as §1

hT2R13 = hT2R13 (Homo sapiens (Human), UniProt Q9NYV9); assay: hT2R panel inhibition, transient HEK293 G16g44, agonist Oxyphenonium 1 mM; assay type: cell-based; settings: HEK293, compound at 25 μM; receptor activated to EC80 with the corresponding agonist; read-out: screening result against bitter receptor 13
Procedure, shortened: as §1

hT2R54 = assay: hT2R panel inhibition, transient HEK293 G16g44, agonist Ranitidine 5 mM; assay type: cell-based, human; settings: compound at 25 μM; receptor activated to EC80 with the corresponding agonist
Procedure, shortened: as §1

hT2R63 = assay: hT2R panel inhibition, transient HEK293 G16g44, agonist Caffeine 1 mM or Andrographolide 100 μM; assay type: cell-based, human; settings: compound at 25 μM; receptor activated to EC80 with the corresponding agonist
Procedure, shortened: as §1

hT2R9 = hT2R9 (Homo sapiens (Human), UniProt Q9NYW1); assay: hT2R panel inhibition, transient HEK293 G16g44, agonist Ofloxacin 1 mM; assay type: cell-based; settings: HEK293, compound at 25 μM; receptor activated to EC80 with the corresponding agonist; read-out: screening result against bitter receptor 9
Procedure, shortened: as §1

hT2R10 = hT2R10 (Homo sapiens (Human), UniProt Q9NYW0); assay: hT2R panel inhibition, transient HEK293 G16g44, agonist Strychnine 50 μM; assay type: cell-based; settings: receptor activated to EC80 with the corresponding agonist; for inhibition at 25 µM: HEK293, read-out: screening result against bitter receptor 10, compound at 25 μM
hT2R75 = hT2R75 (Homo sapiens (Human), UniProt P59540); assay: hT2R panel inhibition, transient HEK293 G16g44, agonist Strychnine 1 μM; assay type: cell-based; settings: receptor activated to EC80 with the corresponding agonist; for inhibition at 25 µM: HEK293, read-out: screening result against bitter receptor 75, compound at 25 μM
hT2R51 = hT2R51 (Homo sapiens (Human), UniProt P59533); assay: hT2R panel inhibition, transient HEK293 G16g44, agonist Prop 2.5 μM; assay type: cell-based; settings: receptor activated to EC80 with the corresponding agonist; for inhibition at 25 µM: HEK293, compound at 25 μM, read-out: screening result against bitter receptor 51
Procedure, shortened: as §1

hT2R67 = assay: hT2R panel inhibition, transient HEK293 G16g44, agonist Andrographolide 5 μM; assay type: cell-based, human; settings: compound at 25 μM; receptor activated to EC80 with the corresponding agonist
Procedure, shortened: as §1

hT2R65 = assay: hT2R panel inhibition, transient HEK293 G16g44, agonist Oleuropein 1 mM; assay type: cell-based, human; settings: compound at 25 μM; receptor activated to EC80 with the corresponding agonist
Procedure, shortened: as §1

hT2R61 = hT2R61 (Homo sapiens (Human), UniProt P59537); assay: hT2R panel inhibition, transient HEK293 G16g44, agonist Aristolochic Acid 25 nM; assay type: cell-based; settings: receptor activated to EC80 with the corresponding agonist; for inhibition at 25 µM: HEK293, compound at 25 μM, read-out: screening result against bitter receptor 61
Procedure, shortened: as §1

hT2R14 [2] = biological target: T1, hT2R14; assay: hT2R panel inhibition, transient HEK293 G16g44, agonist Aristolochic Acid 2 μM; assay type: cell-based; settings: receptor activated to EC80 with the corresponding agonist; for inhibition at 25 µM: HEK293, compound at 25 μM, read-out: screening result against bitter receptor 14
Procedure, shortened: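 Agonist challenge was at EC80, with 0.5 mM andrographolide on hT2R8 and 2 μM aristolochic acid on hT2R14. Inhibition was measured in functional assays in HEK293 cells that stably carry the promiscuous G protein G16g44 and were transiently transfected with the individual receptor.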

hT2R44 = assay: hT2R panel inhibition, transient HEK293 G16g44, agonist Denatonium 0.5 μM; assay type: cell-based, human; settings: compound at 25 μM; receptor activated to EC80 with the corresponding agonist
Procedure, shortened: as §1

hT2R5 = hT2R5 (Homo sapiens (Human), UniProt Q9NYW4); assay: hT2R panel inhibition, transient HEK293 G16g44, agonist Picoline 10 mM; assay type: cell-based; settings: HEK293, compound at 25 μM; receptor activated to EC80 with the corresponding agonist; read-out: screening result against bitter receptor 5
Procedure, shortened: as §1

hT2R4 = hT2R4 (Homo sapiens (Human), UniProt Q9NYW5); assay: hT2R panel inhibition, transient HEK293 G16g44, agonist Chloroquine pH6.5 5 mM; assay type: cell-based; settings: HEK293, compound at 25 μM; receptor activated to EC80 with the corresponding agonist; class symbols; read-out: screening result against bitter receptor 4
Procedure, shortened: as §1

Sequence of hT2R7 (Q9NYW3 whole entry): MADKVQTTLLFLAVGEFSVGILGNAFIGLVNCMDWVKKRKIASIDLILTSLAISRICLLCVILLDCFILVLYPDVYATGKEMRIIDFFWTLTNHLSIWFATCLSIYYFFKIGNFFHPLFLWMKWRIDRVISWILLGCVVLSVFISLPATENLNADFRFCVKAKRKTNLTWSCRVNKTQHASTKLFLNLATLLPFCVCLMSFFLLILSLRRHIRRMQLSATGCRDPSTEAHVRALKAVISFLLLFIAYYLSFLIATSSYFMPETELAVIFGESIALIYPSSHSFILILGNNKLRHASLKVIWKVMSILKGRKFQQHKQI
Sequence of hT2R64 (P59538 whole entry): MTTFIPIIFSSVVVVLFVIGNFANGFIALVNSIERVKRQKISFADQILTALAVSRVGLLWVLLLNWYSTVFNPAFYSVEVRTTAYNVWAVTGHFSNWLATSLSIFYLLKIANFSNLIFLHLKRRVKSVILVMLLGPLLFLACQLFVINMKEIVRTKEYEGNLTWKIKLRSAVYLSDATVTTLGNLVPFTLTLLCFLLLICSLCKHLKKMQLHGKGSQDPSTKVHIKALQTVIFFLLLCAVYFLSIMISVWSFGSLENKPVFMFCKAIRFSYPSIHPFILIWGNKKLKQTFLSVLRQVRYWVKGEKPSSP
Sequence of hT2R5 (Q9NYW4 whole entry): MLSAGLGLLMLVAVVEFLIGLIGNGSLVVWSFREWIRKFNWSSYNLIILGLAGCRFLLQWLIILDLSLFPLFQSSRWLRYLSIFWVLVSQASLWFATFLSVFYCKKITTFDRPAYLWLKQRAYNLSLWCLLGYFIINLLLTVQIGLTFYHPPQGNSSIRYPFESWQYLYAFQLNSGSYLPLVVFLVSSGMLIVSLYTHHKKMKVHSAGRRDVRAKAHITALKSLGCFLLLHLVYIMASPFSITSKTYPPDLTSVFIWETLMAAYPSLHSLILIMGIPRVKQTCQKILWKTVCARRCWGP
Sequence of hT2R51 (P59533 whole entry): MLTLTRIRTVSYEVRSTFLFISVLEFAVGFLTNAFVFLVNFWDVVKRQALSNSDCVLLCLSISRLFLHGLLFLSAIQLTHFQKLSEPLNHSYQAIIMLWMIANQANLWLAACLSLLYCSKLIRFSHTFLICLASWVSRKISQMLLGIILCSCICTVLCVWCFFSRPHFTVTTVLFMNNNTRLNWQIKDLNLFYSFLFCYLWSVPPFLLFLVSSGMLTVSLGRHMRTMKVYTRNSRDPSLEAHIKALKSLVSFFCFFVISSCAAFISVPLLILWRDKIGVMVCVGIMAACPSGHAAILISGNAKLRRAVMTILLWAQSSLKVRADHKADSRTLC
Sequence of hT2R71 (P59536 whole entry): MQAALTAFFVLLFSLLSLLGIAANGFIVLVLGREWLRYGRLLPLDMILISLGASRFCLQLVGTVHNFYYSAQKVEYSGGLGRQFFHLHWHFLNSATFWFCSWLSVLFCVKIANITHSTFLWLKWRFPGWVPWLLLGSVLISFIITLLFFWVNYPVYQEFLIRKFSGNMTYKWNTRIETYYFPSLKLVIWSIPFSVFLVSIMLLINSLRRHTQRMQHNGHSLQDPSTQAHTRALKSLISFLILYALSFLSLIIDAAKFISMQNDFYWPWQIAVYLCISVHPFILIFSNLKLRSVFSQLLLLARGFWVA
T1 sequence (Q9NYV8 whole entry): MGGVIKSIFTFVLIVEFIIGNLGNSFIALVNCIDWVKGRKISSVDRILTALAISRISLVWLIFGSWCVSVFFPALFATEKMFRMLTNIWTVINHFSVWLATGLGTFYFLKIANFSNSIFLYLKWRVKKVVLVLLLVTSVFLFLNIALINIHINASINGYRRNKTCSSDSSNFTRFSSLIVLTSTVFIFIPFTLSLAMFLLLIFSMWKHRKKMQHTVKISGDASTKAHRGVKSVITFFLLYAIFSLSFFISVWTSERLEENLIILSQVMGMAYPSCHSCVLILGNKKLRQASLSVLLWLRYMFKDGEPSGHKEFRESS
Sequence of hT2R61 (P59537 whole entry): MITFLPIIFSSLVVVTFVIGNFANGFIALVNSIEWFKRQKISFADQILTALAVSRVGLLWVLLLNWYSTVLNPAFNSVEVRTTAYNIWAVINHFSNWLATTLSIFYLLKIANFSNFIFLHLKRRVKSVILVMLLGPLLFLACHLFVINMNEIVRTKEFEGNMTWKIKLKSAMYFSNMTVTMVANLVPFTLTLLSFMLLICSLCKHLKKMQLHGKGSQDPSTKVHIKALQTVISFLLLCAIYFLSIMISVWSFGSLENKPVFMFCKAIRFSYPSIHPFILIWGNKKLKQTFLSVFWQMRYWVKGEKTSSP
Sequence of hT2R10 (Q9NYW0 whole entry): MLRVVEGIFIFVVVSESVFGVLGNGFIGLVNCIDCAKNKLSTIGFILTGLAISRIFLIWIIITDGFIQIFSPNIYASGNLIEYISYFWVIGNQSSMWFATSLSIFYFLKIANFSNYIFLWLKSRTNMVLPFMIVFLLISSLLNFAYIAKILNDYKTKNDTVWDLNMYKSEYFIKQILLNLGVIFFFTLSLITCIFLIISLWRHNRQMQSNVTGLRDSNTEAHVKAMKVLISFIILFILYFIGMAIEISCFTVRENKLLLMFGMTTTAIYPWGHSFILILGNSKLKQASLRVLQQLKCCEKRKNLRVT
Sequence of hT2R13 (Q9NYV9 whole entry): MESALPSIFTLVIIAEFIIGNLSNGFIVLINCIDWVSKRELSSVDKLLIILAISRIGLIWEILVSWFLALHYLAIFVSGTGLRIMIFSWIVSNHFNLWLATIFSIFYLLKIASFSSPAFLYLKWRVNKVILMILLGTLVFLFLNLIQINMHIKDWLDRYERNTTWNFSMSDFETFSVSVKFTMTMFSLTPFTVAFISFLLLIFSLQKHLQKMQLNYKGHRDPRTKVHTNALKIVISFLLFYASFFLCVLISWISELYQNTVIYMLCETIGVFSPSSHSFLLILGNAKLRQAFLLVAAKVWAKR
Sequence of hT2R16 (Q9NYV7 whole entry): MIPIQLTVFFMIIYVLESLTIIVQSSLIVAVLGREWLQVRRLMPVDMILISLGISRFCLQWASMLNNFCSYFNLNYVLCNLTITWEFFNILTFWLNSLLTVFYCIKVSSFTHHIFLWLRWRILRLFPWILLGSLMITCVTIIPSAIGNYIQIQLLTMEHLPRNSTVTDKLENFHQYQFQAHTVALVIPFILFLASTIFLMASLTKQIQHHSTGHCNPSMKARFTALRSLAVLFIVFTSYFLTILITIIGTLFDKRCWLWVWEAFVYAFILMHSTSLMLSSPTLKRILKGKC
Sequence of hT2R3 (Q9NYW6 whole entry): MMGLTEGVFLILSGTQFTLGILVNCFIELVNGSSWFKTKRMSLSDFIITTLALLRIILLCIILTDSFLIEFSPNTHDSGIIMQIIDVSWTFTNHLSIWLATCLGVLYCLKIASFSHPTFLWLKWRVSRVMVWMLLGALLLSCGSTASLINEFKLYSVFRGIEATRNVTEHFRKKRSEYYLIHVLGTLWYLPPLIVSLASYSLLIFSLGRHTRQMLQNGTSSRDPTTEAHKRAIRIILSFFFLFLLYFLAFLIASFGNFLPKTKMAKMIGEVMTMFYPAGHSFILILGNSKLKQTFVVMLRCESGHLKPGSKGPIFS
Sequence of hT2R9 (Q9NYW1 whole entry): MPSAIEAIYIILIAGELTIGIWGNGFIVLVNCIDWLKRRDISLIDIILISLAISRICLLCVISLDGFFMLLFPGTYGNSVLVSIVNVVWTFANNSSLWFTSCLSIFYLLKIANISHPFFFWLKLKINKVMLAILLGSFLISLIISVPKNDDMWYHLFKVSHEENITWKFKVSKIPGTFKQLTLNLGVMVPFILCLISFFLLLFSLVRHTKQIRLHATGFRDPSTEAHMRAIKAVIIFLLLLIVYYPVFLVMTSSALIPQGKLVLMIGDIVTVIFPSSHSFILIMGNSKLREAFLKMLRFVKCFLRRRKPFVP
Sequence of hT2R75 (P59540 whole entry): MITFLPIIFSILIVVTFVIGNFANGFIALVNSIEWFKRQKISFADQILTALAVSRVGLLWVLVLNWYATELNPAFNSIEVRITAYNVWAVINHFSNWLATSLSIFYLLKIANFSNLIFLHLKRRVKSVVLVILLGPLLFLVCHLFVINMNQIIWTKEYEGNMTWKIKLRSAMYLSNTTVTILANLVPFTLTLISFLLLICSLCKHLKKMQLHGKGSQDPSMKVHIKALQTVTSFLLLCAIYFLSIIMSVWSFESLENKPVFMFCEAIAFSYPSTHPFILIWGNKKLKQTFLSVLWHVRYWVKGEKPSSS
Sequence of hT2R4 (Q9NYW5 whole entry): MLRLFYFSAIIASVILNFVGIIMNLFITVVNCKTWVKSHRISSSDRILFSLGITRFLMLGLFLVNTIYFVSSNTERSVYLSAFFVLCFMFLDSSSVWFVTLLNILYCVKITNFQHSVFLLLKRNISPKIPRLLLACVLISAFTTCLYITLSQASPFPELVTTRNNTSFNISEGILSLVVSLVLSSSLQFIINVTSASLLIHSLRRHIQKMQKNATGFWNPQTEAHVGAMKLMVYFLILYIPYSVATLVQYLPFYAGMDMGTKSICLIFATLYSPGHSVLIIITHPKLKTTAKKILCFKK

SMILES | IC50 (hT2R14 [1]) | inhibition at 25 µM (hT2R16) | screening result against bitter receptor 55 (hT2R55) | inhibition at 25 µM (hT2R7) | inhibition at 25 µM (hT2R13) | screening result against bitter receptor 54 (hT2R54) | screening result against bitter receptor 63 (hT2R63) | inhibition at 25 µM (hT2R9) | screening result against bitter receptor 67 (hT2R67) | screening result against bitter receptor 65 (hT2R65) | screening result against bitter receptor 44 (hT2R44) | inhibition at 25 µM (hT2R64) | inhibition at 25 µM (hT2R3) | inhibition at 25 µM (hT2R71) | inhibition at 25 µM (hT2R10) | inhibition at 25 µM (hT2R75) | inhibition at 25 µM (hT2R5) | inhibition at 25 µM (hT2R51) | inhibition at 25 µM (hT2R61) | inhibition at 25 µM (hT2R14 [2]) | other results
COc1ccc(CN(Cc2ccc(F)cc2)S(=O)(=O)c2ccc(C(=O)O)cc2)cc1 [Example 5-10, 4-(N-(4-fluorobenzyl)-N-(4-methoxybenzyl)sulfamoyl)benzoic acid] | 1.97 µM | > 80% | +++ (60% to 80% inhibition = +++) | 40 to 60% | 40 to 60% | ++++ (80% or greater inhibition = ++++) | ++++ (80% or greater inhibition = ++++) | 40 to 60% | +++ (60% to 80% inhibition = +++) | ++++ (80% or greater inhibition = ++++) | ++ (40% to 60% inhibition = ++) | – | – | – | – | – | – | – | – | – | screening result against bitter receptor 64 (hT2R64; compound at 25 μM): +++ (60% to 80% inhibition = +++); screening result against bitter receptor 3 (hT2R3; compound at 25 μM): +++ (60% to 80% inhibition = +++); screening result against bitter receptor 71 (hT2R71; compound at 25 μM): +++ (60% to 80% inhibition = +++); screening result against bitter receptor 10 (hT2R10; compound at 25 μM): ++++ (80% or greater inhibition = ++++); screening result against bitter receptor 75 (hT2R75; compound at 25 μM): + (20% to 40% inhibition = +); screening result against bitter receptor 51 (hT2R51; compound at 25 μM): ++++ (80% or greater inhibition = ++++); screening result against bitter receptor 61 (hT2R61; compound at 25 μM): ++++ (80% or greater inhibition = ++++); screening result against bitter receptor 14 (hT2R14 [2]; compound at 25 μM): ++++ (80% or greater inhibition = ++++)
COc1ccc(CN(Cc2cccc(F)c2)S(=O)(=O)c2ccc(C(=O)O)cc2)cc1 [Example 5-12, 4-(N-(3-fluorobenzyl)-N-(4-methoxybenzyl)sulfamoyl)benzoic acid] | – | 60 to 80% | ++++ (80% or greater inhibition = ++++) | 40 to 60% | 20 to 40% | ++++ (80% or greater inhibition = ++++) | ++++ (80% or greater inhibition = ++++) | 40 to 60% | +++ (60% to 80% inhibition = +++) | ++++ (80% or greater inhibition = ++++) | +++ (60% to 80% inhibition = +++) | 60 to 80% | 60 to 80% | > 80% | > 80% | 20 to 40% | 40 to 60% | > 80% | > 80% | > 80% | –
COc1ccc(CN(CC2CCCCC2)S(=O)(=O)c2ccc(C(=O)O)cc2)cc1 [Example 5-23, 4-(N-(cyclohexylmethyl)-N-(4-methoxybenzyl)sulfamoyl)-benzoic acid] | 3.47 µM | 60 to 80% | ++++ (80% or greater inhibition = ++++) | 40 to 60% | 20 to 40% | – | – | 40 to 60% | ++ (40% to 60% inhibition = ++) | ++++ (80% or greater inhibition = ++++) | – | 60 to 80% | 60 to 80% | > 80% | > 80% | 40 to 60% | 40 to 60% | 40 to 60% | > 80% | > 80% | inhibition at 25 µM (hT2R4): 40 to 60%
COc1ccc(CN(Cc2cccc(F)c2F)S(=O)(=O)c2ccc(C(=O)O)cc2)cc1 [Example 5-33, 4-(N-(2,3-difluorobenzyl)-N-(4-methoxybenzyl)sulfamoyl)benzoic acid] | – | 40 to 60% | ++++ (80% or greater inhibition = ++++) | 20 to 40% | 20 to 40% | +++ (60% to 80% inhibition = +++) | +++ (60% to 80% inhibition = +++) | 20 to 40% | ++ (40% to 60% inhibition = ++) | +++ (60% to 80% inhibition = +++) | +++ (60% to 80% inhibition = +++) | 60 to 80% | 40 to 60% | 60 to 80% | 60 to 80% | – | 40 to 60% | 40 to 60% | > 80% | > 80% | inhibition at 25 µM (hT2R4): 40 to 60%
COc1ccc(CN(Cc2ccccc2)S(=O)(=O)c2ccc(C(=O)O)cc2)cc1C [Example 5-89, 4-(N-benzyl-N-(4-methoxy-3-methylbenzyl)sulfamoyl)benzoic acid] | – | 20 to 40% | ++++ (80% or greater inhibition = ++++) | 40 to 60% | 20 to 40% | + (20% to 40% inhibition = +) | ++++ (80% or greater inhibition = ++++) | 20 to 40% | + (20% to 40% inhibition = +) | ++++ (80% or greater inhibition = ++++) | +++ (60% to 80% inhibition = +++) | 60 to 80% | 40 to 60% | 60 to 80% | 60 to 80% | 20 to 40% | 20 to 40% | > 80% | > 80% | > 80% | –
